According to patent publication US20030225044A1, “Method to increase serum levels of vitamins in animals including humans” (priority 2002, published 2003):

Columns and labels:
Type in all cases: in vivo, beef steers
[1] = Serum 25-Hydroxy-Vitamin D3 after intravenous infusion (Example I); details: 125 mg intravenous infusion
Experimental: Applicants infused three (3) beef steers of mixed breeding with 125 milligrams of 25-Hydroxy-Vitamin D3 intravenously. Blood was drawn just prior to the intravenous infusion and at 6 hours and 24 hours post administration.
Point 120, representing 116 nanomoles per liter, comprises the serum level of 25-Hydroxy-Vitamin D3 just prior to the intravenous infusion. At 6 hours post administration, the serum blood level was measured as 2432 nanomoles per liter, i.e. point 130. […] At 24 hours post administration, the serum blood level was measured as 1011 nanomoles per liter, i.e. point 140.

[2] = Buccal versus nasal administration, serum 25-Hydroxy-Vitamin D3 (Example IV); details: for serum level change for each milligram administered: after 6 hours (FIG. 7)
Experimental: To study the dose/response efficacy of buccal administration of one or more vitamins, beef steers of mixed breeding were used to evaluate three treatments (3 replications). These three treatments were:
(§1) Treatments were applied and cattle were bled via jugular venipuncture at 0 and 6 hours post-dosing.

[3] = Dose/response of nasal administration, serum 25-Hydroxy-Vitamin D3 (Example III); details: intranasal
Experimental: To study the dose/response efficacy of nasal administration of Vitamin D, twelve (12) beef steers of mixed breeding were used to evaluate four treatments (3 replications). These four treatments were:
as §1

[4] = Serum 25-Hydroxy-Vitamin D3 after intranasal or transdermal administration (Example II); details: for fold increase in the 25-Hydroxy-Vitamin D3 serum level / percent increase in the 25-Hydroxy-Vitamin D3 serum level: nasal delivery
Experimental: These five treatments were:
Treatments were applied and cattle were bled via jugular venipuncture at 0, 6, and 24 hours post-dosing.

[5] = Treatment 2: 125 mg 25-OH D3, ethanol, intranasal, 6 Hours
[6] = Treatment 2: 125 mg 25-OH D3, ethanol, intranasal, 24 Hours
[7] = Treatment 2: 125 mg 25-OH D3, ethanol, intranasal, time 0
[8] = Treatment 2: 125 mg in ethanol, 6 hours post administration (FIG. 2, point 212)
[9] = Treatment 2: 125 mg in ethanol, 24 hours post administration (FIG. 2, point 214)
[10] = Treatment 3: 125 mg 25-OH D3, powder, intranasal, 6 Hours
[11] = Treatment 3: 125 mg 25-OH D3, powder, intranasal, 24 Hours
[12] = Treatment 3: 125 mg 25-OH D3, powder, intranasal, time 0
[13] = Treatment 4: 125 mg 25-OH D3, corn oil, intranasal, 6 Hours
[14] = Treatment 4: 125 mg 25-OH D3, corn oil, intranasal, 24 Hours
[15] = Treatment 4: 125 mg 25-OH D3, corn oil, intranasal, time 0
[16] = Treatment 5: 125 mg 25-OH D3, transdermal (inner ear), 6 Hours
[17] = Treatment 5: 125 mg 25-OH D3, transdermal (inner ear), 24 Hours
[18] = Treatment 5: 125 mg 25-OH D3, transdermal (inner ear), time 0

Structure (SMILES): C=C1CC[C@H](O)C/C1=C/C=C1\CCC[C@]2(C)[C@@H]([C@H](C)CCCC(C)(C)O)CC[C@@H]12 [25-Hydroxy-Vitamin D3]
- course of serum level of 25-Hydroxy-Vitamin D3 ([1]; 0 to 6 hours (FIG. 1, curve portion 112)): increases from 0 hours to 6 hours post administration
- course of serum level of 25-Hydroxy-Vitamin D3 ([1]; 6 to 24 hours (FIG. 1, curve portion 114)): decreases from 6 hours to 24 hours post administration
- serum level of 25-Hydroxy-Vitamin D3 ([1]; 6 hours post administration): 2432 nanomoles per liter
- serum level of 25-Hydroxy-Vitamin D3 ([1]; 24 hours post administration): 1011 nanomoles per liter
- serum level of 25-Hydroxy-Vitamin D3 ([1]; just prior to infusion): 116 nanomoles per liter
- serum level change for each milligram administered ([2]; Buccal administration (Treatment 3, 120 mg in 1 ml ethanol)): about 0.63 nmol/L for each milligram administered
- serum level change for each milligram administered ([2]; Nasal administration (Treatment 2, 120 mg in 1 ml ethanol)): about 0.57 nmol/L for each milligram administered
- Average Serum Levels-25-Hydroxy-Vitamin D3 ([2]; Treatment 2: 120 mg 25-OH D3 in 1 ml ethanol, intranasal, 6 Hours): 191.67 nmol/L
- Average Serum Levels-25-Hydroxy-Vitamin D3 ([2]; Treatment 2: 120 mg 25-OH D3 in 1 ml ethanol, intranasal, time 0): 122.33 nmol/L
- effectiveness of buccal administration compared with nasal administration ([2]; Treatment 3, buccal, in ethanol, versus Treatment 2, nasal, 0 to 6 hours (FIG. 6, curves 610 and 620)): comparatively as effective as nasal administration
- Average Serum Levels-25-Hydroxy-Vitamin D3 ([2]; Treatment 3: 120 mg 25-OH D3 in 1 ml ethanol, buccal, 6 Hours): 158.00 nmol/L
- Average Serum Levels-25-Hydroxy-Vitamin D3 ([2]; Treatment 3: 120 mg 25-OH D3 in 1 ml ethanol, buccal, time 0): 82.00 nmol/L
- Average Serum Levels-25-Hydroxy-Vitamin D3 ([3]; Treatment 2: 30 mg 25-OH D3 in 1 ml ethanol, 6 Hours): 149.67 nmoI/L
- Average Serum Levels-25-Hydroxy-Vitamin D3 ([3]; Treatment 2: 30 mg 25-OH D3 in 1 ml ethanol, time 0): 121.33 nmoI/L
- change in serum level per milligram administered, compared among dosages ([3]; Treatment 2: 30 mg in 1 ml ethanol, 6 hours, versus 60, 90, 120 mg (FIG. 5)): maximum change in serum level per milligram administered
- Average Serum Levels-25-Hydroxy-Vitamin D3 ([3]; Treatment 3: 60 mg 25-OH D3 in 1 ml ethanol, 6 Hours): 184.33 nmoI/L
- Average Serum Levels-25-Hydroxy-Vitamin D3 ([3]; Treatment 3: 60 mg 25-OH D3 in 1 ml ethanol, time 0): 144.67 nmoI/L
- Average Serum Levels-25-Hydroxy-Vitamin D3 ([3]; Treatment 4: 90 mg 25-OH D3 in 1 ml ethanol, 6 Hours): 180.67 nmoI/L
- Average Serum Levels-25-Hydroxy-Vitamin D3 ([3]; Treatment 4: 90 mg 25-OH D3 in 1 ml ethanol, time 0): 131.33 nmoI/L
- Average Serum Levels-25-Hydroxy-Vitamin D3 ([3]; Treatment 5: 120 mg 25-OH D3 in 1 ml ethanol, 6 Hours): 191.67 nmoI/L
- Average Serum Levels-25-Hydroxy-Vitamin D3 ([3]; Treatment 5: 120 mg 25-OH D3 in 1 ml ethanol, time 0): 122.33 nmoI/L
- Average Serum Levels-25-Hydroxy-Vitamin D3 [4, 5]: 226 nmol/L
- Multiple change from time 0 of serum 25-Hydroxy-Vitamin D3 [4, 5]: 3.0
- Average Serum Levels-25-Hydroxy-Vitamin D3 [4, 6]: 354 nmol/L
- Multiple change from time 0 of serum 25-Hydroxy-Vitamin D3 [4, 6]: 4.7
- Average Serum Levels-25-Hydroxy-Vitamin D3 [4, 7]: 75 nmol/L
- Multiple change from time 0 of serum 25-Hydroxy-Vitamin D3 [4, 7]: 0
- course of serum level of 25-Hydroxy-Vitamin D3 ([4]; Treatment 2: 125 mg in ethanol, nasal delivery (FIG. 2, curve 210)): increases throughout the time period from 0 hours to 24 hours post administration
- fold increase in the 25-Hydroxy-Vitamin D3 serum level [4, 8]: more than a three fold increases
- percent increase in the 25-Hydroxy-Vitamin D3 serum level [4, 8]: ~200%
- fold increase in the 25-Hydroxy-Vitamin D3 serum level [4, 9]: greater than 4.7 fold
- percent increase in the 25-Hydroxy-Vitamin D3 serum level [4, 9]: ~375%
- Average Serum Levels-25-Hydroxy-Vitamin D3 [4, 10]: 104 nmol/L
- Multiple change from time 0 of serum 25-Hydroxy-Vitamin D3 [4, 10]: 1.2
- Average Serum Levels-25-Hydroxy-Vitamin D3 [4, 11]: 156 nmol/L
- Multiple change from time 0 of serum 25-Hydroxy-Vitamin D3 [4, 11]: 1.9
- Average Serum Levels-25-Hydroxy-Vitamin D3 [4, 12]: 83 nmol/L
- Multiple change from time 0 of serum 25-Hydroxy-Vitamin D3 [4, 12]: 0
- course of serum level of 25-Hydroxy-Vitamin D3 ([4]; Treatment 3: 125 mg powder, nasal delivery (FIG. 2, curve 220)): increases throughout the time period from 0 hours to 24 hours post administration
- Average Serum Levels-25-Hydroxy-Vitamin D3 [4, 13]: 95 nmol/L
- Multiple change from time 0 of serum 25-Hydroxy-Vitamin D3 [4, 13]: 1.0
- Average Serum Levels-25-Hydroxy-Vitamin D3 [4, 14]: 179 nmol/L
- Multiple change from time 0 of serum 25-Hydroxy-Vitamin D3 [4, 14]: 1.9
- Average Serum Levels-25-Hydroxy-Vitamin D3 [4, 15]: 94 nmol/L
- Multiple change from time 0 of serum 25-Hydroxy-Vitamin D3 [4, 15]: 0
- course of serum level of 25-Hydroxy-Vitamin D3 ([4]; Treatment 4: 125 mg in corn oil, nasal delivery (FIG. 2, curve 230)): increases throughout the time period from 6 hours to 24 hours post administration
- Average Serum Levels-25-Hydroxy-Vitamin D3 [4, 16]: 81 nmol/L
- Multiple change from time 0 of serum 25-Hydroxy-Vitamin D3 [4, 16]: 1.1
- Average Serum Levels-25-Hydroxy-Vitamin D3 [4, 17]: 96 nmol/L
- Multiple change from time 0 of serum 25-Hydroxy-Vitamin D3 [4, 17]: 1.3
- Average Serum Levels-25-Hydroxy-Vitamin D3 [4, 18]: 74 nmol/L
- Multiple change from time 0 of serum 25-Hydroxy-Vitamin D3 [4, 18]: 0
